Data: ChEMBL document CHEMBL1201862, “PubChem BioAssay data set” (2004)
Calls of active or inactive are those of the source.

Tests used:
[1] = C. albicans growth with fluconazole, confirmation, fluorescence, retest (AID 2467); type: functional, cell-based
[2] = target: Disintegrin and metalloproteinase domain-containing protein 17 (Homo sapiens, UniProt P78536); assay: ADAM17 protease inhibitors, dose response, counter-screen for ADAM10 exosite inhibitor project, biochemical, quenched FRET substrate (AID 743253)
Disintegrin and metalloproteinase domain-containing protein 17, sequence (P78536 whole entry, the tested form may be a part): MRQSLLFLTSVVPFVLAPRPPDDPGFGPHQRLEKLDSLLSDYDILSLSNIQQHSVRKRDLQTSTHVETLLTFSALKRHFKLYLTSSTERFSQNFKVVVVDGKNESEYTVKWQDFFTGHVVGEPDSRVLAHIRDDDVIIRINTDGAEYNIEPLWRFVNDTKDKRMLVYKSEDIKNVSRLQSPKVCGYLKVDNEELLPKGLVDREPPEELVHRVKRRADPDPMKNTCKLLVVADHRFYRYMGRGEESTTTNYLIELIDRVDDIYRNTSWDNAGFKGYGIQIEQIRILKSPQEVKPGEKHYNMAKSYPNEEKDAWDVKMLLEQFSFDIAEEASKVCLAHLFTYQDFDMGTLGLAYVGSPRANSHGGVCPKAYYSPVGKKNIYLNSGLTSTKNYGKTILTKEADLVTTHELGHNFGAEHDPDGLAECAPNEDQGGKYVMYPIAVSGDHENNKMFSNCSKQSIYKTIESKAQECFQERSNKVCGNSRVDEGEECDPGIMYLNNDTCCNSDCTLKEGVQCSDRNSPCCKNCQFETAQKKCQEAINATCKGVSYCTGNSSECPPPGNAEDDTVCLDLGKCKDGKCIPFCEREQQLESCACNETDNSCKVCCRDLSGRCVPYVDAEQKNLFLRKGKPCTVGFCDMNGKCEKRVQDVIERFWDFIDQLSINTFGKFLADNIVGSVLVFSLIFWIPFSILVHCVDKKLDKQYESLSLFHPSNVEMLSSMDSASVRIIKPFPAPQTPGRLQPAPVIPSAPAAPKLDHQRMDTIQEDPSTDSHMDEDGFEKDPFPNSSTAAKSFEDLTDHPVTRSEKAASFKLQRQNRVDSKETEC

[3] = target: Matrix metalloproteinase-14 (Homo sapiens, UniProt P50281); assay: Dose Response confirmation of uHTS hits for a small molecule inhibitors of MT1-MMP activation in a fluorescence assay set 2.; type: functional
[4] = NIH-3T3 fibroblast cytotoxicity, dose response, cytotoxicity control, cell-based, fluorescence, Alamar Blue, secondary assay (AID 2327); type: functional;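 further: NIH-3T3 mouse fibroblasts cultured with fluconazole at 8 µg/mL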
[5] = ADAM10 inhibitors, peptide cleavage, dose response, biochemical, QFRET (AID 743254);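 further: ADAM10 enzyme with the DM2 quenched FRET peptide as substrate; EDANS fluorescence gain as the protease cuts the substrate; inhibitor potency against ADAM10 proteolytic activity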
[6] = target: Nonstructural protein 1 (Influenza A virus, UniProt Q194T2); type: functional, Influenza A virus (A/California/07/2009(H1N1))
[7] = target: Botulinum neurotoxin type F (Clostridium botulinum, UniProt P30996); assay: High-throughput multiplex microsphere dose response for inhibitors of toxin protease, specifically Botulinum neurotoxin light chain F protease, compounds from Cherry Pick 02.; type: functional; settings: read-out: EC50_MICROM
[8] = target: T1, DNA repair protein RAD52 homolog (Homo sapiens, UniProt P43351); type: functional, biochemical
T1 sequence (P43351 whole entry): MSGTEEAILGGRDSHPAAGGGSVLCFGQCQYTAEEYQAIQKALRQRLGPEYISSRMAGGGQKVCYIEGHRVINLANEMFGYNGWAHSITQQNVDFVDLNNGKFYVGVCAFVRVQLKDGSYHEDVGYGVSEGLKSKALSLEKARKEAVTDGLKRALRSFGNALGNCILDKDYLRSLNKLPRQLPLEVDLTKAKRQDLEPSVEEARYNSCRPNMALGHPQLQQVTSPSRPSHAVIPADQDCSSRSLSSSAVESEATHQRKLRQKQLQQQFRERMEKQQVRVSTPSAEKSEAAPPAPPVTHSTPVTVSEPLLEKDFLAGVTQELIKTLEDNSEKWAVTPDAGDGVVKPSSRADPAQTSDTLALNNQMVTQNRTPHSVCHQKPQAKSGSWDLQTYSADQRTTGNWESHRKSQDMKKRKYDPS

[9] = target: T2, DNA repair and recombination protein RAD54-like (Homo sapiens, UniProt Q92698); assay: inhibitors of human RAD54 branch migration, confirmation, biochemical, fluorescence, cherry-picked samples, dose series (AID 651657); type: functional
T2 sequence (Q92698 whole entry): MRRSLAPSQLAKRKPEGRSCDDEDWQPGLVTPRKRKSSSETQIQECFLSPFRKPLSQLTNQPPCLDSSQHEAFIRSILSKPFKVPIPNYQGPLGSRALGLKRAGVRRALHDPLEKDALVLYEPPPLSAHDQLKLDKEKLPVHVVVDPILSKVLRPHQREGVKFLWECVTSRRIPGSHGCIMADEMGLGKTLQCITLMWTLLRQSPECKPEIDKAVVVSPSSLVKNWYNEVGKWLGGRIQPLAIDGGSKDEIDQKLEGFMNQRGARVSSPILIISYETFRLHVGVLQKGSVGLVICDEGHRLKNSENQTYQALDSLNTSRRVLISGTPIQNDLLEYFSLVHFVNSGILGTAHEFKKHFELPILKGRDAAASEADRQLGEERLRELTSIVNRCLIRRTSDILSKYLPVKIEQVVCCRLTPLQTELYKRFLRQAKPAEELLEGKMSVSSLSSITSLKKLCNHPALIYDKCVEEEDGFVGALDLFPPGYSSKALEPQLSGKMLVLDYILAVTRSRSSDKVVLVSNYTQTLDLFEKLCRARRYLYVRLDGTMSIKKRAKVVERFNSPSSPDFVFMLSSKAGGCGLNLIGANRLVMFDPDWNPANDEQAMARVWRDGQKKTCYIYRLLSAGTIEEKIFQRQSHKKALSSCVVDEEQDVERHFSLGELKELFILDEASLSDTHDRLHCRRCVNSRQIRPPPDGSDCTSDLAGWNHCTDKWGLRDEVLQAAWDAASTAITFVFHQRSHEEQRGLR

[10] = MDA-MB-231 cell growth inhibition, dose response, cytotoxicity control for RAD54 inhibitor project, CellTiter-Glo luminescence, cherry-pick (AID 651692); type: functional, cell-based
[11] = target: T3, Probable nicotinate-nucleotide adenylyltransferase (Staphylococcus aureus (strain N315), UniProt P65502); type: functional, Staphylococcus aureus subsp. aureus N315; settings: read-out: IC50_Mean;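 on IC50 Mean: confirmatory dose-response retesting of NadD inhibitor hits first found in an ultra-high-throughput screen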
T3 sequence (P65502 whole entry): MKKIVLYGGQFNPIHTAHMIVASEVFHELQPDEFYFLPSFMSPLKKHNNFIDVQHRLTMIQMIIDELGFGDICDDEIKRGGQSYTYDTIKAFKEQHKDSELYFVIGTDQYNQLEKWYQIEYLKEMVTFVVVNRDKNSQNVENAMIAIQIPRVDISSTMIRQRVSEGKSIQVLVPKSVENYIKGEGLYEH

[12] = target: T3, Probable nicotinate-nucleotide adenylyltransferase; type: functional, Staphylococcus aureus subsp. aureus N315
[13] = tested on: Vero; assay: Vero cell toxicity, dose response, cytotoxicity control, plate reader, cherry-pick samples (AID 687020); type: functional, cell-based; settings: Chlorocebus sabaeus
[14] = tested on: A549; assay: A549 cell toxicity, dose response, cytotoxicity control, plate reader, cherry-pick samples (AID 687028); type: functional, cell-based; settings: Homo sapiens
[15] = target: Beta-galactosidase (Escherichia coli, UniProt Q8VNN2); assay: Dose response counterscreen for EBI2 assay utilizing the enzyme, b-galactosidase.; type: functional
Beta-galactosidase, sequence (Q8VNN2 whole entry): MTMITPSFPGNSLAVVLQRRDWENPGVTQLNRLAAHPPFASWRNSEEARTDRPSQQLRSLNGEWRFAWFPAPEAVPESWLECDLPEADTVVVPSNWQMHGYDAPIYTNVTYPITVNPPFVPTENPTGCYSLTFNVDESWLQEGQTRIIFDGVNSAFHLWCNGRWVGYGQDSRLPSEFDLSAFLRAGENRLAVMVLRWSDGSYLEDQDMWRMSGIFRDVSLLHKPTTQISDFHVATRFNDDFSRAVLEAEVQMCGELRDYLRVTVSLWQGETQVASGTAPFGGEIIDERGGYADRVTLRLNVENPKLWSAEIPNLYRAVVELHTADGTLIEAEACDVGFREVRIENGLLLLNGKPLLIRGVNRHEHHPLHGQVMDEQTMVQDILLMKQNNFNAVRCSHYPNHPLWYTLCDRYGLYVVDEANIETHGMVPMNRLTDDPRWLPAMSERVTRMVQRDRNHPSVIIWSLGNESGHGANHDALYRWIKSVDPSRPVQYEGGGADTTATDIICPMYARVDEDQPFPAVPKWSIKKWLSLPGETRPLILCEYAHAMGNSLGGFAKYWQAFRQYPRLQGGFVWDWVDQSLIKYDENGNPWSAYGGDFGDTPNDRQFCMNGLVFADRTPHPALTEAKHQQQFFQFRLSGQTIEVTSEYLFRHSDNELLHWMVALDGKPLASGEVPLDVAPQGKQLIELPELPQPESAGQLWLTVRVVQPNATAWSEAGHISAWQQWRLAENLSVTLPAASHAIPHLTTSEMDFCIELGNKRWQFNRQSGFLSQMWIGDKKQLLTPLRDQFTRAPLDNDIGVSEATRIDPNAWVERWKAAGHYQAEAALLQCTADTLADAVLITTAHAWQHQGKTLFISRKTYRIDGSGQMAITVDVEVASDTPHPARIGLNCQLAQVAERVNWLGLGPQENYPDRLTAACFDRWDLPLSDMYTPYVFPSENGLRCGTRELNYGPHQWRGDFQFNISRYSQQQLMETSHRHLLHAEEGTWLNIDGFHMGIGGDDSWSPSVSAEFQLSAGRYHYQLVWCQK

[16] = target: SWI/SNF-related matrix-associated actin-dependent regulator of chromatin subfamily A member 2 (Homo sapiens, UniProt P51531); assay: Luminescence-based cell-based high throughput dose response assay to identify activators of the function of SWI/SNF related, matrix associated, actin dependent regulator of chromatin, subfamily a, member 2 (SMARCA2, BRM).; type: functional
[17] = Counterscreen for activators of the function of SWI/SNF related, matrix associated, actin dependent regulator of chromatin, subfamily a, member 2 (SMARCA2, BRM): Luminescence-based cell-based high throughput dose response assay to identify non-selective compounds using the VP16 reporter assay.; type: functional
[18] = target: T4, Long-chain-fatty-acid--AMP ligase FadD28 (Mycobacterium tuberculosis, UniProt P9WQ59); assay: Fluorescence polarization aasay to screen for inhibitors that compete for the binding of FadD28 to a bisubstrate Measured in Biochemical System Using Plate Reader - 2147-01_Inhibitor_Dose_CherryPick_Activity.; type: functional, Mycobacterium tuberculosis H37Rv
T4 sequence (P9WQ59 whole entry): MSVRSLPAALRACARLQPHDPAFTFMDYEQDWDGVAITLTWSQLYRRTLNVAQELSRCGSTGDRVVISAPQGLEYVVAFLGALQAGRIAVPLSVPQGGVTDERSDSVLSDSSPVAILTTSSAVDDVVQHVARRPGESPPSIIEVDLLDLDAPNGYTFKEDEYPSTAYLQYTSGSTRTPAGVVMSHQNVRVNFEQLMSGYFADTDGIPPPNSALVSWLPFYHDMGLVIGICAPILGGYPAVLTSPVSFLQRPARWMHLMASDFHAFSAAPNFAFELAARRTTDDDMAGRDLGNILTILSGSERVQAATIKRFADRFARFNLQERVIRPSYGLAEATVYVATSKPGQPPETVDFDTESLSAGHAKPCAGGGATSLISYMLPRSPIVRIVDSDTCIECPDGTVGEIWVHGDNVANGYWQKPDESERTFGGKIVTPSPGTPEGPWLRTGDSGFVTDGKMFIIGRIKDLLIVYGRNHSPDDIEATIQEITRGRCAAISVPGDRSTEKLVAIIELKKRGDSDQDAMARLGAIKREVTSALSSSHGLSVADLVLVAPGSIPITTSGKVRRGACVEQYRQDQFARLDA

[19] = target: Nuclear receptor subfamily 0 group B member 1 (Homo sapiens, UniProt P51843); type: functional, cell-based;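 further: HEK293T cells transfected with SF-1 and DAX-1 plus StAR promoter luciferase reporter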
Nuclear receptor subfamily 0 group B member 1, sequence (P51843 whole entry): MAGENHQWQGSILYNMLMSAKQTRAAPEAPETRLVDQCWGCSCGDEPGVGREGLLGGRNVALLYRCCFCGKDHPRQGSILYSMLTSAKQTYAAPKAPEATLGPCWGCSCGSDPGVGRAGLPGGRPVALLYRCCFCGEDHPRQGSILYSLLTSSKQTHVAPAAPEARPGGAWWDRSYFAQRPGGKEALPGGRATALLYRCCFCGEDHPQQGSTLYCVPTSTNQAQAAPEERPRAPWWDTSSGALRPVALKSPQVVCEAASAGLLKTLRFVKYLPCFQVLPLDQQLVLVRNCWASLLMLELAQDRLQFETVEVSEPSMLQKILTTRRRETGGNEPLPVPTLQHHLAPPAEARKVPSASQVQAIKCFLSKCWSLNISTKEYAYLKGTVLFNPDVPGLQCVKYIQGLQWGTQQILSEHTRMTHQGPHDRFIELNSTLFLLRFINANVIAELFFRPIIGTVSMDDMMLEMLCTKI

[20] = cells; type: functional, cell-based
[21] = target: T5, Tyrosine-protein phosphatase non-receptor type 22 (Homo sapiens, UniProt Q9Y2R2); assay: PTPN22 phosphatase inhibition, dose response, selectivity assay for STEP inhibitor project, biochemical (AID 624241); type: functional
T5 sequence (Q9Y2R2 whole entry): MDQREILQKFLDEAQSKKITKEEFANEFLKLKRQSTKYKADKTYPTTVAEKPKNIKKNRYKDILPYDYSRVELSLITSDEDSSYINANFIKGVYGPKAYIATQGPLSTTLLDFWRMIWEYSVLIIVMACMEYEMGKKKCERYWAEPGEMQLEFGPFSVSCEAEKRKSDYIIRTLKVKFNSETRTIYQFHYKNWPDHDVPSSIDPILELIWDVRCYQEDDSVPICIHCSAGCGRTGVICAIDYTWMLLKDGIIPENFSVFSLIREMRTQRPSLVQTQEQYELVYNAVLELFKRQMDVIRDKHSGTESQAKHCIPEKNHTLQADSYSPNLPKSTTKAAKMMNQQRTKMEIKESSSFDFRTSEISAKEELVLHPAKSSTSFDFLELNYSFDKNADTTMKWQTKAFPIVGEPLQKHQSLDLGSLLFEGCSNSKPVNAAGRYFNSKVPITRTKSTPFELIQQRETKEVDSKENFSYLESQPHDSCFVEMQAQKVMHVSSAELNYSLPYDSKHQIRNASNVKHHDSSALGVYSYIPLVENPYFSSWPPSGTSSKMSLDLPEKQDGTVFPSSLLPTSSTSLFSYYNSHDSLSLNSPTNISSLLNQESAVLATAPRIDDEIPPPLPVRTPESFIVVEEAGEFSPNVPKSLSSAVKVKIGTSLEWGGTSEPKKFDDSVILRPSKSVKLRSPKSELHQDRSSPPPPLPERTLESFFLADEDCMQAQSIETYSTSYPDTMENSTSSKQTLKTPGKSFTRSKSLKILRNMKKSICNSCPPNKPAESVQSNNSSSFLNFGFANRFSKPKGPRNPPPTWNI

[22] = target: Dual specificity protein phosphatase 3 (Homo sapiens, UniProt P51452); assay: VHR phosphatase inhibition, dose response, selectivity assay for STEP inhibitor project, biochemical (AID 602374); type: functional; settings: read-out: IC50_Mean
Dual specificity protein phosphatase 3, sequence (P51452 whole entry): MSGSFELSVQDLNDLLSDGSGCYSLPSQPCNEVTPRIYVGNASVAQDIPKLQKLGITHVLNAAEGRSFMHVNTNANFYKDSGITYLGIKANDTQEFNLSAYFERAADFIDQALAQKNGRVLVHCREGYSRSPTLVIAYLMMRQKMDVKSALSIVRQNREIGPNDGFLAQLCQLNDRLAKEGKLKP

[23] = target: Eukaryotic translation initiation factor 4H (Homo sapiens, UniProt Q15056); assay: human eIF4H binding inhibitors, primary screen, translation initiation inhibitor project, biochemical, uHTS, fluorescence polarization (AID 2012)
[24] = target: Polyadenylate-binding protein 1 (Homo sapiens, UniProt P11940); assay: PABP poly(A) RNA binding inhibitors, primary screen, biochemical, fluorescence polarization, uHTS (AID 2014)
[25] = target: T6, Carboxy-terminal domain RNA polymerase II polypeptide A small phosphatase 1 (Homo sapiens, UniProt Q9GZU7); assay: inhibitors of CTDSP1, concentration-response testing, biochemical assay, absorbance-based, actives from ultra-high-throughput screening (AID 540297); type: functional
T6 sequence (Q9GZU7 whole entry): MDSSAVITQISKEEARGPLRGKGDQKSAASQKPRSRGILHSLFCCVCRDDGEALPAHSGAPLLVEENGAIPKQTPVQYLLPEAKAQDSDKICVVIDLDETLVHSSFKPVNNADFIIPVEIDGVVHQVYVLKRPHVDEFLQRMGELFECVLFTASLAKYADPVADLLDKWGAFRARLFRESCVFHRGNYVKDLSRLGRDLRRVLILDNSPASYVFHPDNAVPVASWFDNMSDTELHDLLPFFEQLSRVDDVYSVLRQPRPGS

[26] = target: Tyrosine-protein phosphatase non-receptor type 5 (Homo sapiens, UniProt P54829); assay: STEP phosphatase inhibitors, confirmation, biochemical, fluorescence intensity, uHTS hits (AID 602372); type: functional; settings: read-out: IC50_Mean
Tyrosine-protein phosphatase non-receptor type 5, sequence (P54829 whole entry): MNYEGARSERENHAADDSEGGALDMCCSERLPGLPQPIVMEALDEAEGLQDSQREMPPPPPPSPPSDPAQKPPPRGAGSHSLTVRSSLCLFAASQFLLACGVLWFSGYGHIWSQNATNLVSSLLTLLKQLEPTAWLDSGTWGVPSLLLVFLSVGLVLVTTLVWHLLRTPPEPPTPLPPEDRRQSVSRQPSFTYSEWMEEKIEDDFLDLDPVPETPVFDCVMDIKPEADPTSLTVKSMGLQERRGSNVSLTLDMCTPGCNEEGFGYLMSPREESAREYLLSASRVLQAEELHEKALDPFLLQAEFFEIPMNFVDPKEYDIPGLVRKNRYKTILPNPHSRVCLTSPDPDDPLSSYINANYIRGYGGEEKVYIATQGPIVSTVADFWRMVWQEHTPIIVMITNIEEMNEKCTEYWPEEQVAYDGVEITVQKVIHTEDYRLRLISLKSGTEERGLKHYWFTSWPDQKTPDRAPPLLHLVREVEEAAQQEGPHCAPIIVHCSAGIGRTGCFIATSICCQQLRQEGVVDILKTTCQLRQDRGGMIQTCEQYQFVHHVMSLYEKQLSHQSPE

[27] = target: Tyrosine-protein phosphatase non-receptor type 11 (Homo sapiens, UniProt Q06124); assay: SHP2 phosphatase inhibition, dose response, selectivity assay for STEP inhibitor project, biochemical (AID 602367); type: functional; settings: read-out: IC50_Mean
Tyrosine-protein phosphatase non-receptor type 11, sequence (Q06124 whole entry): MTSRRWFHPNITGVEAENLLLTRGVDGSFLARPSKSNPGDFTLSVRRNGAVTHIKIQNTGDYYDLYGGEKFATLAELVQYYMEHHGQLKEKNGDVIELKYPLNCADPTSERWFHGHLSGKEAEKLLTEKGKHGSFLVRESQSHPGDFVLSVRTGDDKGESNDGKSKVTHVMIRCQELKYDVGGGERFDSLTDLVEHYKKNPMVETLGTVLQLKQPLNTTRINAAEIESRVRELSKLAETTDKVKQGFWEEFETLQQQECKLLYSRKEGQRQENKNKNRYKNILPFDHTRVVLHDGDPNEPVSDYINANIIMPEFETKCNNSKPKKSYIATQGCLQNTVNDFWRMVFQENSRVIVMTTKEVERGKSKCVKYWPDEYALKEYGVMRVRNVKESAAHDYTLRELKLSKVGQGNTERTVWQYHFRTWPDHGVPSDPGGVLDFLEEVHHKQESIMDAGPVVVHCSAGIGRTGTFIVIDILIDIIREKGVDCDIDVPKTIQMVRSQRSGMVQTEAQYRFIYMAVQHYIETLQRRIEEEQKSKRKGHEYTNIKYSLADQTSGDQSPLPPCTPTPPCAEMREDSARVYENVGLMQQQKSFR

[28] = target: Genome polyprotein (dengue virus type 2, UniProt P29990); assay: Dengue-2 NS5 methyltransferase inhibitors, primary screen, biochemical, confirmation dose response (AID 588689); type: functional
Genome polyprotein, sequence (P29990 2492-3391 limits assumed): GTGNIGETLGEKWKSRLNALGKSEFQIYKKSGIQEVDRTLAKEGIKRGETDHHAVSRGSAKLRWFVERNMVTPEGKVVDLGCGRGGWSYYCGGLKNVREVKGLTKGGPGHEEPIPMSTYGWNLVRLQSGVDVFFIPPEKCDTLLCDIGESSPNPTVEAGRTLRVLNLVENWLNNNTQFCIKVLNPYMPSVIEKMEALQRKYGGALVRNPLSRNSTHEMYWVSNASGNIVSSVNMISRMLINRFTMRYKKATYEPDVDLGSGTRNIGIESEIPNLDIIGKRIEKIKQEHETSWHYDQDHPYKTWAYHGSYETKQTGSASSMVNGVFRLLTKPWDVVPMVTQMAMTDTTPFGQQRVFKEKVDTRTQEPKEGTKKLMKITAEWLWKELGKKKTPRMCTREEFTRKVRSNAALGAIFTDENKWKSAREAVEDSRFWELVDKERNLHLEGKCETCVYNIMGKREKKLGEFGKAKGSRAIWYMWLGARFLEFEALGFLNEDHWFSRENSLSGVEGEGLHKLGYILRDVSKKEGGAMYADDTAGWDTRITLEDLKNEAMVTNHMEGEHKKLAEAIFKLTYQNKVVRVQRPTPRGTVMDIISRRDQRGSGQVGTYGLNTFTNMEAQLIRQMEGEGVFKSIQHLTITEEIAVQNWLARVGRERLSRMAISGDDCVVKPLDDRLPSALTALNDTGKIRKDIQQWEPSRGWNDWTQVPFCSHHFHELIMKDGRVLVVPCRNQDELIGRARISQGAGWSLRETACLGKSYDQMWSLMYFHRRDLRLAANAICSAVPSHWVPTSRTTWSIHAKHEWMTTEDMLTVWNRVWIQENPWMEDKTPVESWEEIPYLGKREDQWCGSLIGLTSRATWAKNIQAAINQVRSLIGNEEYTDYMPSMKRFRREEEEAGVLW

[29] = tested on: Vero; assay: cells; type: functional; settings: Chlorocebus sabaeus
[30] = target: Arf-GAP with SH3 domain, ANK repeat and PH domain-containing protein 1 (Homo sapiens, UniProt Q9ULH1); type: functional;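 further: biochemical fluorescence polarization dose–response screen measuring inhibition of ASAP1; ASAP1 GAP domain stimulating GTP hydrolysis by truncated human ARF1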

Nc1nc(-c2ccccc2)c(N=Nc2ccccc2Cl)s1
EC50 [1]: 4.78 µM (active) | IC50 [2]: > 69.5 µM (inactive) | IC50 [3]: 28 µM (inactive) | EC50 [4]: > 160 µM (inactive) | IC50 [5]: 8.65 µM (active) | IC50 [6]: 9.93 µM (active)

Cc1nc2ccc(NC(=O)[C@@H](NC(=O)c3c(F)cccc3F)C(C)C)cc2s1
EC50 [7]: > 20 µM (inactive)

COc1ccc(OC)c2sc(N(CCN(C)C)C(=O)c3ccc4ccccc4c3)nc12
AC50 [8]: 10.7 µM (active) | AC50 [9]: 58.4 µM (active) | AC50 [10]: 32.7 µM (active)

O=C(NNS(=O)(=O)c1ccc2ccccc2c1)c1cc(-c2ccccn2)nc2ccccc12
IC50 [11]: 28.9 µM (active) | IC50 [12]: 11.7 µM (active)

CCNS(=O)(=O)c1ccc(Br)c(C(=O)OC(C)C(=O)NCC2CCCCC2)c1 (stereo not given)
AC50 [13]: 31.7 µM (active)

Cc1cccc(N=[N+]([O-])c2cccc(C)n2)n1
AC50 [14]: 34.5 µM (active)

Cc1ccc2oc(C(=O)N3CCC(O)(c4ccccc4)CC3)c(C)c2c1
IC50 [15]: > 80 µM (inactive)

Cc1ccc2c(c1)cc(CN(Cc1ccco1)C(=O)N1CCOCC1)c1nnnn12
EC50 [16]: > 91.2 µM (inactive) | EC50 [17]: > 91.2 µM (inactive)

CCc1cccc2c(C(=O)CN3C(=O)N(C)C4(CCCCC4)C3=O)c[nH]c12
AC50 [18]: > 100 µM (inactive) | IC50 [19]: > 67.5 µM (inactive) | IC50 [20]: > 67.5 µM (inactive)

COc1ccc(/C=N/NC2=NC(=O)C(CC(=O)O)S2)cc1OCc1ccc(Cl)cc1Cl (stereo not given)
IC50 [21]: 33.8 µM (inactive) | IC50 [22]: 4.79 µM (active) | IC50 [23]: 14.7 µM (active) | IC50 [24]: 64.3 µM (active) | IC50 [25]: 4.48 µM (active) | IC50 [26]: 9.72 µM (active) | IC50 [27]: 4.42 µM (active) | IC50 [28]: 59.4 µM (active)

COCCn1cnc2c(c1=O)c1nc3ccccc3nc1n2/N=C/c1ccc(OC)c(OC)c1
CC50 [29]: 23.5 µM (active) | IC50 [30]: 41.7 µM (inactive)
